The values below come from patent US12702654B2, “Compositions and methods for treating homocystinuria and other conditions using polyamines” (THE REGENTS OF THE UNIVERSITY OF COLORADO, priority 2020, dated 2026).

For one data set, the system named is BHMT. Briefly: Hepatic BHMT protein during long-term betaine treatment. The format is in vivo, mouse.
The subject of data set [1] is HO HCU mice. Particulars: earlier study, cited from earlier work.
Another data set concerns ApoA-1. Briefly: ApoA-1 expression in HO model. The format is in vivo, mouse. The conditions noted are these: one-week treatment protocol. The protocol: (§1) In another exemplary method, the transsulfuration pathway and methionine-folate cycle pathways, as show in the sematic illustrated in FIG. 18A, were assessed. In brief, three experimental groups (n=8 for each group) of male mice consisting of either untreated WT controls or HO HCU mice in the presence or absence of betaine treatment. Betaine was administered by dissolving the compound in drinking water at 30 g/l and was supplied ad libitum to the mice for one week. Treatment water was replenished twice per week.

For data set [2] the following is noted: mouse, in vivo. As for the experimental part:
as §1
To investigate the effects of these treatments upon the hepatic regulatory changes in enzyme expression induced by HCU, the human transgenic HO mouse model of HCU was used. In brief, experimental groups consisting of 8 HO mice on a C57BL/6J background and 8 C57BL/6J WT littermate control mice bred in house were used. Mice in both groups were male and aged between 3 and 4 months. Except where otherwise stated, all mice were maintained on standard chow. All diets were administered using a paired-feeding design to ensure isocaloric intake between all experimental groups and body weights were measured once per week. There was no significant difference in body weight between mice in any of the experimental groups. […]

A further data set concerns SHMT2. Briefly: Western blotting of hepatic SHMT2 expression. The format is in vivo, mouse. The conditions noted are these: HO mice, 30 g/l in drinking water ad libitum, one week. The protocol:
To investigate the effects of these treatments upon the hepatic regulatory changes in enzyme expression induced by HCU, the human transgenic HO mouse model of HCU was used. In brief, experimental groups consisting of 8 HO mice on a C57BL/6J background and 8 C57BL/6J WT littermate control mice bred in house were used. Mice in both groups were male and aged between 3 and 4 months. Except where otherwise stated, all mice were maintained on standard chow. All diets were administered using a paired-feeding design to ensure isocaloric intake between all experimental groups and body weights were measured once per week. There was no significant difference in body weight between mice in any of the experimental groups. Betaine and taurine were in this example, both administered by dissolving these compounds in drinking water at 30 g/l ([…] 3% w/v) and were supplied ad libitum for one week. Treatment water was replenished twice per week.
Western blotting analysis of SAHH, MTHFR and SHMT2 expression was performed in liver samples from HO mice in the presence and absence of betaine or taurine treatment.

Data set [3] relates to HO HCU mice. The conditions noted are these: earlier study, cited from earlier work. The source holds these as a separate data set.
Setting [4] is: HCU mice, longer period of betaine treatment.
[5] abbreviates: mouse model of HCU, betaine treatment.

Regarding `C[N+](C)(C)CC(=O)O` [betaine, N,N,N-trimethylglycine], the BHMT protein levels result with BHMT is recorded as “significantly higher levels of BHMT protein”. Moreover, in the data set with BHMT (approximately 2% without), the “BHMT as share of total hepatic protein” value is on record as 8-10%. The “hypercoagulative phenotype after a longer period of treatment” value in the data set on HO HCU mice [1] (setting [4]) is recorded as “return to the hypercoagulative phenotype”. Also, in the data set with HO HCU mice [1] (setting [5]), the hypercoagulative phenotype entry is recorded as “significantly ameliorated the hypercoagulative phenotype”. Further, the ApoA-1 expression result with ApoA-1 is on record as “increase ApoA-1 expression”. Moreover, the tolerability of doses result in data set [2] is given as “well tolerated”. Besides, in the data set on SHMT2, the “HCU-induced repression of hepatic SHMT2” value is given as “completely reversed”. In addition, the “total homocysteine levels after a longer period of treatment” value in the data set with HO HCU mice [3] (setting [4]) is on record as “greater than 100 μM”. Further, the plasma homocysteine result with HO HCU mice [3] (setting [5]) is given as “below 100 μM”.
